Patent publication US20230016551A1, “METHOD FOR ADMINISTRATION OF URSODEOXYCHOLIC ACID” (SHILPA MEDICARE LIMITED, priority 2020, published 2023)
Values joined by “and” are separate entries in the source; they are usually repeats but may differ in a detail not shown here. Identical values can stand only once.

Experiments:
Assay type in all cases: in vivo, human
[1] = system: patients with non-alcoholic fatty liver disease; test: NAFLD patients: liver biopsy histology, histology activity index (HAI) score; set-up: scale not given here; conditions: individual patients 1-4
Source text: A. Histology Examination: Only four patients in each group has accepted to undergo the liver biopsy (LB) before and after the treatment with intravenous UDCA and oral UDCA.

[2] = system: patients with biliary colicky pain due to radiolucent gallstones; test: Dissolution of gallbladder transparent stones and colicky pain, intravenous vs oral UDCA; conditions: for patients with gall stones dissolution by echographic evaluation: n = 10
Protocol: 20 patients were recruited aged 35 years to 65 years with sudden burst of biliary colicky pain due to radiolucent gallstones, diameter 0.3 to […] and altered liver enzymes. Some patients are also […] complaining of quite an intense pain with nausea and vomiting but without fever, negative inflammation markers (ESR, CRP) and slight leukocytosis, no rebound tenderness at the gallbladder manual exploration. […] were administered with 3500 mg of UDCA every 12 hours for 6 days from the cubital vein; the very first infusion at the admission was added with 20 mg hyoscine-N-butyl bromide and 75 mg diclofenac as the patients are distressed by excruciating pain.

[3] = system: patients with non-alcoholic fatty liver disease; test: NAFLD patients: liver elastography (stiffness, kPa)
Source text: B. Elastography in Liver: Ultrasound imaging plays a major role in the diagnosis, monitoring and therapeutic decisions of chronic liver diseases. It has many clinical indications: morphological examination of the liver parenchyma and assessment of the risk of chronic liver disease by investigating for signs of dysmorphism and/or portal hypertension; detecting and characterizing liver lesions; monitoring local treatments and assessment of treatment response. Different levels of fibrosis are assessed using a histological score. The most widely used is the METAVIR score, which incorporates five stages of fibrosis: • F0 (no fibrosis), • F1 (portal fibrosis without septa: minimal fibrosis), • F2 (portal fibrosis with a few septa: moderate fibrosis or clinically significant fibrosis), • F3 (septal fibrosis with many septa but no cirrhosis: severe fibrosis) and F4 (cirrhosis). Staging liver fibrosis in patients with chronic liver disease is essential for patient management as it allows: • 1) To identify the severity of the liver damage in order to decide whether or not to start treatment (chronic viral liver disease) to avoid progression to cirrhosis when the fibrosis becomes significant ( ≥F2); • 2) To assess the progression or regression of liver fibrosis during treatment; • 3) To institute specific monitoring to screen for and treat complications (HCC, Esophageal varices) in patients suffering from cirrhosis and even severe fibrosis ( ≥F3). Conventional ultrasound cannot differentiate accurately the different liver fibrosis stages. Existing tools to assess liver fibrosis include liver biopsy (LB), which is invasive, and other non-invasive methods. The main non-invasive method to assess liver fibrosis is based on a physical parameter that measures the tissue elasticity and is called Elastography. It can replace subjective palpation and is intended to image the mechanical properties of tissues and more particularly their stiffness. The Elastography methods are based on a common approach: measurement of deformation induced in a tissue by a force. This technique uses an external mechanical device or an internal acoustic radiation force (ARFI and SWE) to induce shear waves in the tissue to be explored. The diagnostic action mechanism is based on shear wave, which is generated by an external mechanical impulse and whose speed is measured by an ultrasound one-dimensional probe. The one-dimensional probe (3.5 MHz) is mounted along the axis of an electro-dynamic transducer (vibrator). In this way it is possible to define the liver stiffness by measuring the velocity of elastic shear waves in the liver parenchyma generated by the mechanical impulse. The propagation velocity is directly related to the stiffness of the medium, defined by the Young modulus. […] The elasticity is expressed in kPa (kilopascals) and is measured at depth ranging from 25 to 65 mm in a 1 x4 cm area: the assessed liver volume is therefore two hundred times greater than the volume examined in a liver biopsy (LB). The obtained values range from 2.5 kPa to 75 kPa. Mean liver elasticity in “normal” subject is 5.81±1.54 and 5.23±1.59 kPa respectively for men and women.

[4] = system: patients with non-alcoholic fatty liver disease; test: NAFLD patients: gastrointestinal side effects, oral vs intravenous UDCA
Protocol: (§1) The first group of patients was treated with 50 mg/kg/day UDCA orally for first two months (500 mg capsules swallowed after meals on average of 2-3 capsules after breakfast, 3-4 capsules after lunch and 3-4 capsules after dinner). The second group of patients was treated with intravenous schedule of UDCA at a dose of 3500 mg each other day (every 48 hours) for a total of 24 intravenous sessions. The lab examinations were performed at time T0 (beginning of the study) and time T1 (end of second month treatment). Each patient of the two groups was submitted to standard echo graphic classification as follows: • Grade 0: No fatty liver • Grade 1 (Mild): Mild diffuse increase in the echogenicity of liver parenchyma or increased hepatorenal contrast with normal diaphragm and intrahepatic vessel borders. • Grade 2 (Moderate): Moderate diffuse increase in the echogenicity of liver parenchyma and increased hepatorenal contrast with slight impairment of diaphragm and intrahepatic vessel borders. • Grade 3 (Severe): In addition to moderate steatosis there was no visualization of posterior portion of the right lobe of liver, intrahepatic vessel borders and diaphragm.

[5] = system: patients with non-alcoholic fatty liver disease; test: NAFLD patients: BMI, liver parameters (GGT, AST, ALT) and liver ultrasound grade, intravenous vs oral UDCA; set-up: GGT / AST / ALT: unit not given here; conditions: n = 50; for Liver Ultrasound - G: echographic fatty liver grade 0-3; for BMI / ALT / AST / GGT: mean±SD
Protocol: as §1, with “Two groups of patients (each group consisting of 50 patients N=50 as disclosed in Table -1) with non-alcoholic fatty liver disease are taken and standardized with the diet of 1300 calories/day (30% proteins, 30% carbohydrates and 40% fat). The first” for “The first”, “and diaphragm. Values were presented as mean± standard deviation for quantitative variable and percentages for categorical variables. The two groups were compared by student’s t-test for quantitative variable and chi-square for the categorical variables. Changes from baseline to 12 weeks were compared by paired t-test within each group. Wilcoxon test was used for rating variable comparison before and after treatment in each group.” for “and diaphragm.”

[6] = oral group, 0.7 g/kg oral UDCA for three months
[7] = oral, 50 mg/kg/day for two months
[8] = intravenous, 3500 mg every 48 hours, 24 sessions, T0
[9] = intravenous, 3500 mg every 48 hours, 24 sessions, T1 (end of second month)
[10] = oral, 50 mg/kg/day for two months, T0
[11] = oral, 50 mg/kg/day for two months, T1 (end of second month)

Compound: C[C@H](CCC(=O)O)[C@H]1CC[C@H]2[C@@H]3[C@@H](O)C[C@@H]4C[C@H](O)CC[C@]4(C)[C@H]3CC[C@]12C [UDCA, ursodeoxycholic acid]
- HAI score: Fibrosis ([1]; intravenous administration, T0): 3 (2×) and 4 (2×)
- HAI score: Intralobular ([1]; intravenous administration, T0): 0
- HAI score: Periportal +/- bridging ([1]; intravenous administration, T0): 3 and 2 and 1 (2×)
- HAI score: Portal inflammation ([1]; intravenous administration, T0): 3 (2×) and 2 (2×)
- HAI score: Fibrosis ([1]; intravenous administration, T1): 2 and 1 (3×)
- HAI score: Intralobular ([1]; intravenous administration, T1): 0
- HAI score: Periportal +/- bridging ([1]; intravenous administration, T1): 1 and 0 (3×)
- HAI score: Portal inflammation ([1]; intravenous administration, T1): 1 and 0 (2×) and 2
- HAI score: Fibrosis ([1]; oral administration, T0): 4 (3×) and 3
- HAI score: Intralobular ([1]; oral administration, T0): 0
- HAI score: Periportal +/- bridging ([1]; oral administration, T0): 1 (2×) and 3 and 2
- HAI score: Portal inflammation ([1]; oral administration, T0): 3 (2×) and 2 (2×)
- HAI score: Fibrosis ([1]; oral administration, T1): 3 (2×) and 2 (2×)
- HAI score: Intralobular ([1]; oral administration, T1): 0
- HAI score: Periportal +/- bridging ([1]; oral administration, T1): 1
- HAI score: Portal inflammation ([1]; oral administration, T1): 2 (3×) and 1
- adverse effects of parenteral treatment ([2]; intravenous 3500 mg every 12 hours for 6 days, 20 patients, first week): no adverse effects
- patients with gall stones dissolution by echographic evaluation ([2]; intravenous group, 3500 mg twice a week for 3 months): 7 patients
- average stones volume reduction ([2]; oral UDCA group, the remaining patients): less than 30%
- patients in whom colicky pain reappeared during the first 40 days [2, 6]: 4 patients out of 10
- patients with gall stones dissolution by echographic evaluation [2, 6]: 3 patients
- reduction of the sludging concretions and overall stones volume compared with pre-treatment imaging ([2]; parenteral group, the remaining 3 patients): more than 50%
- liver stiffness by elastography (mean ± SD) ([3]; METAVIR score F ≥3, intravenous administration, T0): 20.2±5.7 kPa
- liver stiffness by elastography (mean ± SD) ([3]; METAVIR score F ≥3, intravenous administration, T1): 9.9±5.6 kPa
- liver stiffness by elastography (mean ± SD) ([3]; METAVIR score F ≥3, oral administration, T0): 19.9±7.1 kPa
- liver stiffness by elastography (mean ± SD) ([3]; METAVIR score F ≥3, oral administration, T1): 12.5±6.9 kPa
- liver stiffness by elastography (mean ± SD) ([3]; METAVIR score F ≥4, intravenous administration, T0): 25.3±6.5 kPa
- liver stiffness by elastography (mean ± SD) ([3]; METAVIR score F ≥4, intravenous administration, T1): 18.5±5.9 kPa
- liver stiffness by elastography (mean ± SD) ([3]; METAVIR score F ≥4, oral administration, T0): 23.6±6.8 kPa
- liver stiffness by elastography (mean ± SD) ([3]; METAVIR score F ≥4, oral administration, T1): 19.7±5.8 kPa
- local or systemic side effects during and after administration ([4]; intravenous, 3500 mg every 48 hours, 24 sessions): No local or systemic side effects were noted
- tolerability and compliance ([4]; intravenous, compared with the capsules to be swallowed): tolerated and preferred in terms of compliance
- bloating, share of the patients [4, 7]: 20%
- colicky pain as side effect [4, 7]: moderate colicky pain
- diarrhoea, share of the patients [4, 7]: 38%
- nausea, share of the patients [4, 7]: 15%
- reduced appetite, share of the patients [4, 7]: 10%
- Liver Ultrasound - G [5, 8]: 3±2
- Liver Ultrasound - G [5, 9]: 1±0
- Liver Ultrasound - G [5, 10]: 3±2
- Liver Ultrasound - G [5, 11]: 2±1
- BMI ([5]; intravenous, 3500 mg every 48 hours, 24 sessions, T0 (beginning of the study)): 29.06±4.6 kg/m^2
- ALT [5, 8]: 78.05±5.52
- AST [5, 8]: 65.54±4.56
- GGT [5, 8]: 19.52±5.82
- ALT [5, 9]: 52.6±5.65
- AST [5, 9]: 44.56±5.52
- BMI [5, 9]: 26.25±6.2 kg/m^2
- GGT [5, 9]: 16.77±7.76
- BMI ([5]; oral, 50 mg/kg/day for two months, T0 (beginning of the study)): 28.18±3.8 kg/m^2
- ALT [5, 10]: 76.48±4.95
- AST [5, 10]: 63.25±5.43
- GGT [5, 10]: 22.7±6.43
- ALT [5, 11]: 74.32±5.58
- AST [5, 11]: 59.43±3.39
- BMI [5, 11]: 27.67±4.2 kg/m^2
- GGT [5, 11]: 20.83±7.56
